RP-LC retention time data for 79 compounds are collected here from the METLIN SMRT retention time set (Domingo-Almenara et al. 2019).

The series is described as follows: gradient 5% acetonitrile 3 min, to 50% in 2 min, to 85% in 15 min, held 3 min, 100 µL/min. The note with it: column: Zorbax Extend-C18 2.1 x 50 mm; eluents: water / acetonitrile, 0.1% formic acid. An outline of the steps: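 Standards, all pure, were combined into mixtures of ~100 molecules and run at 100 μL/min on a Zorbax Extend-C18 column (2.1 × 50 mm, 1.8 μm) with water and acetonitrile, each containing 0.1% formic acid. A coupled quadrupole time-of-flight mass spectrometer operated in positive and negative ionization mode. Retention time values come from computationally picked adduct peaks, each inspected manually.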
The compound `CCN1CCN(CCNC(=O)CCCn2c3ccccc3c3cnn(C)c(=O)c32)CC1` displayed an RP-LC retention time of 579 s. Under `COc1ccc(-c2nc(Cn3cnc4nc5c(cc4c3=O)CCCC5)c(C)o2)c(OC)c1` stands 845 s; under `CCCCCC(CN1CCOCC1)C(=O)/C=C/c1ccccc1` (centres undefined), 748 s; under `CCC(C)(C)NS(=O)(=O)c1ccc(-c2nc(C(C)C)cs2)s1`, 1240 s.

In the case of `CC(=O)c1ccc(NC(=O)CN2C(=O)NC3(CCCCC3)C2=O)cc1`, the RP-LC retention time was 717 s.

In the case of `O=C(NCc1ccc(F)cc1)Nc1nnc(-c2ccco2)o1`, the RP-LC retention time worked out at 706 s. In the case of `O=C(c1nnc(-c2ccc(S(=O)(=O)N3CCOCC3)cc2)o1)N1CCCCC1` it was 785 s; in that of `Cc1cc(C)c(C(=O)N2CCCC(C(=O)NCc3cccc(Br)c3)C2)[nH]1` (centres undefined), 855 s.

For `COCCOCc1nc(C2CCCN2C(=O)c2ccsc2)no1` (centres undefined), the RP-LC retention time turned out to be 679 s.

In the case of `COc1cccc(OC)c1C(=O)N1CCCC1c1cc(C(C)C)on1` (centres undefined), the RP-LC retention time is 794 s. Compound `O=C(CNC(=O)Cc1ccc(Cl)cc1)NCC(=O)N1CCCc2ccccc21` gave an RP-LC retention time of 770 s. Take `C=CCNC(=O)C1CCN(C(=O)Nc2ccc(NC(=O)Nc3ccccc3)cc2)CC1`: the RP-LC retention time amounted to 679 s. Under `COC(=O)c1c(C)[nH]c(C(=O)N2CCCC(C(=O)N3CCC(C)CC3)C2)c1C` (centres undefined) stands 758 s; under `CCN(c1ccccc1)S(=O)(=O)c1ccc2c(c1)N(C(C)=O)CCCS2`, 937 s; under `CCOc1ccc(CNC(=O)c2c(C)oc3c2C2=NCCN2C=N3)cc1`, 668 s. Consider `COc1ccc(N2CCN(C(=O)C3CCCN(c4ccc(-c5ccccc5)nn4)C3)CC2)cc1` (centres undefined), for which the RP-LC retention time stood at 711 s. Under `O=C(NC1CCCCC1)C1CCCN(S(=O)(=O)c2c[nH]c(C(=O)N3CCCC3)c2)C1` (centres undefined) stands 759 s; under `CC(C)NC(=O)C1CCCN(c2nc3ncn(CC(=O)Nc4ccc5c(c4)CCC5)c(=O)c3s2)C1` (centres undefined), 709 s; under `COc1cccc(-c2ccc(=O)n(Cc3nc(-c4cccc(Br)c4)no3)n2)c1`, 1110 s. For `Cc1cc(N2CCN(C(=O)CCCc3c[nH]c4ccccc34)CC2)nc2ccccc12`, the RP-LC retention time was 696 s. In the case of `O=C(Nc1cnc(-c2ccc(F)cc2)nc1)c1ccc(F)cc1` it was 1000 s; in that of `O=C1CC(c2noc(-c3cccc(F)c3)n2)CN1c1ccccc1` (centres undefined), 958 s. Consider `Cc1nc(OCC(=O)NCc2cccc(Cl)c2)c2c(C)c(C)oc2n1`, for which the RP-LC retention time was found to be 929 s. Consider `CC(C)NC(=O)N1CCC(c2nc(C(C)C)cs2)CC1`, for which the RP-LC retention time amounted to 766 s. In the case of `COc1cc(Cl)ccc1C(=O)N1CCN(c2cc(-c3cccs3)[nH]n2)CC1` it was 795 s; in that of `O=C(NC1CCS(=O)(=O)C1)C1CCN(c2cnn(Cc3ccccc3)c(=O)c2)C1` (centres undefined), 662 s; in that of `Cc1cc(C(=O)Nc2nc(-c3nc4ccccc4s3)cs2)c(C)o1`, 1040 s. In the case of `CCCCc1ccc(NC(=O)CSc2nccc(N3CCCC3)n2)cc1` it was 803 s; in that of `CN1CCN(C(CNC(=O)C(=O)Nc2ccc(F)cc2F)c2ccc3c(c2)OCO3)CC1` (centres undefined), 685 s; in that of `CCCNC(=O)c1ccc2nc(CCc3ccc(NC(=O)C(C)C)cc3)[nH]c2c1`, 617 s. Under `O=C(NC1CC1)[C@@H]1C[C@H](Oc2ccccc2)CN1C(=O)COc1ccc(F)cc1` stands 813 s; under `Cc1ccc(CN2CC(COc3cccnc3)C3(CCOCC3)C2)c(C)c1` (centres undefined), 591 s. Compound `CCOC(=O)C1C(=O)C=C(c2ccc(OC)c(OC)c2)CC1c1cccc(OC)c1OC` (centres undefined) gave an RP-LC retention time of 923 s. In the case of `O=C(C1CCN(c2nc3ccc(-c4cncnc4)nc3s2)CC1)N1CCCCC1` it was 787 s. In the case of `Cc1cccc(-c2noc(-c3sc4ncn(CC(=O)N5CCCC5)c(=O)c4c3C)n2)c1` it was 1020 s; in that of `Cc1cccc(Cn2c(=O)n(CCNC(=O)C3(c4ccccc4)CC3)c3ncccc32)c1`, 953 s. In the case of `CCOC(=O)[C@H](CCc1ccccc1)N[C@@H](C)C(=O)N1CCC[C@@H]1C(=O)O` it was 647 s; in that of `COc1ccccc1-c1ccc(N2CCN(C(=O)NC3CCCCC3)CC2)nn1`, 601 s; in that of `O=C(NC1CCCN(c2cc(-c3ccncc3)[nH]n2)C1)c1ccc2c(c1)OCO2` (centres undefined), 603 s. On to `CCn1cc(CCNC(=O)Nc2ccc(Cl)cc2F)c2cccnc21`, for which the RP-LC retention time is 824 s.

With `O=C(c1cccs1)N1N=C(c2ccc3c(c2)OCO3)CC1c1ccco1` (centres undefined), the RP-LC retention time was 919 s. `O=C(NCc1ccccc1Cl)C1CC(=O)N(CCc2c[nH]c3ccc(F)cc23)C1` (centres undefined) yielded an RP-LC retention time of 811 s. In the case of `COC(=O)c1c(C)[nH]c(C(=O)N2CCC(CC(=O)NCCc3c[nH]c4ccccc34)CC2)c1C` it was 722 s. Under `O=C(Cn1cc(S(=O)(=O)N2CCCCC2)ccc1=O)N1CCCc2ccccc21` stands 846 s; under `COc1ccc(-c2ncc(NC(=O)C(C)C)cn2)cc1`, 802 s; under `COc1ccc(NC(=O)Cn2nc3c(N4CCSCC4)nccn3c2=O)c(OC)c1`, 797 s. Under `CCn1cnc(S(=O)(=O)N2CCC(C(=O)N3CCN(c4cc(C)ccc4C)CC3)CC2)c1` stands 878 s. The compound `CCC1CN(C(=O)Nc2ccccc2)c2ccccc2O1` (centres undefined) gave an RP-LC retention time of 1020 s. In the case of `Cc1noc(-c2cc(=O)n(CC(=O)Nc3ccc4c(c3)OCO4)c3ccccc23)n1` it was 831 s; in that of `Cc1ccc(-c2nocc2CCC(=O)NCc2ccc3c(c2)OCO3)cc1`, 816 s; in that of `CC(Oc1ccc(-c2cnc3ccccc3n2)cc1)C(=O)N1CCN(c2ncccn2)CC1` (centres undefined), 872 s.

The compound `COCCCNc1ncc(C(=O)O)c(-c2ccccc2)n1` had an RP-LC retention time of 804 s. In the case of `CSc1ncccc1C(=O)Nc1cccc(OCc2nnc(-c3ccc(Cl)cc3)o2)c1` it was 1010 s. As to `CCc1ccc(NC(=O)N2CCc3cn(CC)c4cccc(c34)C2)cc1`, the RP-LC retention time was 1060 s. For the compound `COc1cccc(-c2nn3c(CSc4ccccc4)nnc3s2)c1`, the RP-LC retention time is 993 s. Consider `O=C(C1CCN(c2nc3ccc(-c4cccs4)nc3s2)CC1)N1CCOCC1`, for which the RP-LC retention time turned out to be 826 s.

Compound `CCOc1ccc(N2C=C(C(=O)OC)S(=O)(=O)c3cc(F)ccc32)cc1` displayed an RP-LC retention time of 924 s. Under `Cc1ccc(-c2cc3c(=O)n(Cc4noc(CN5CCCCCC5)n4)ccn3n2)c(C)c1` stands 724 s. `CC(NC(=O)c1ccc(Oc2nccnc2N2CCSCC2)cc1)c1ccc(F)cc1` (centres undefined): the RP-LC retention time turned out to be 965 s. In the case of `COC(=O)c1ncn2c1C(=O)N(Cc1ccc(F)cc1)C(C)(C(=O)NCc1ccccc1)C2` (centres undefined) it was 714 s; in that of `Cc1c(S(=O)(=O)N2CCCCC2)c(C)n(C)c1-c1nnc(C2CCC2)o1`, 1000 s.

As for `Cc1ccc(-n2nc(C)c3sc(N4CCCC(C(=O)NC5CCCc6ccccc65)C4)nc32)cc1` (centres undefined), the RP-LC retention time was 1300 s.

For `Cc1ccc2nc(CNC(=O)Cn3nc(C(=O)N4CCCC4)c4ccccc43)[nH]c2c1`, the RP-LC retention time is 600 s. Under `N#CCCSc1ccccc1NC(=O)c1ccc(Cl)s1` stands 908 s; under `Cc1cccc(Nc2ccc(N3CCN(C(=O)c4cccs4)CC3)nn2)n1`, 579 s; under `COc1ccc(-c2nc(C3CC(=O)N(c4ccc(F)cc4)C3)no2)cc1` (centres undefined), 961 s.

As to `CCn1cnc(S(=O)(=O)N2CCCC(C(=O)NCc3cccc(C)c3)C2)c1` (centres undefined), the RP-LC retention time is 747 s. `O=C(CCn1nnc2cc(S(=O)(=O)N3CCCC3)ccc21)N1CCN(c2ccccn2)CC1` yielded an RP-LC retention time of 602 s. In the case of `CC(=O)Nc1cccc(C2OC(c3ccc(Cl)cc3Cl)=NN2C(C)=O)c1` (centres undefined) it was 914 s. Turning to `COc1ccc(NC(=O)COc2ccc(-c3nnc4n3CCCC4)cc2)cc1OC`, the RP-LC retention time is 626 s. In the case of `CCC1Oc2ccc(S(=O)(=O)N3CCC(C(=O)N4CCN(CC)CC4)CC3)cc2NC1=O` (centres undefined) it was 573 s.

The compound `CCCN(CCC)C1CCc2cccc(OC)c2C1` (centres undefined) registered an RP-LC retention time of 762 s.

`COCc1ccc(C(=O)Nc2nnc(C)s2)o1` showed an RP-LC retention time of 595 s. In the case of `CCN1C(=O)CCc2cc(NC(=O)c3ccnn3C)ccc21`, the RP-LC retention time came out at 677 s. In the case of `O=C(NCC1CCCO1)c1ccc(CN2CCN(Cc3ccc(F)cc3)C(=O)C2=O)cc1` (centres undefined) it was 676 s; in that of `O=C(CSc1ccc(F)cc1)N1CCC(COCc2ccccc2)CC1`, 1030 s. Consider `O=C(Cn1cc(-c2ccccc2)c(N2CCOCC2)n1)N1CCN(c2ccccc2F)CC1`, for which the RP-LC retention time amounted to 978 s. Consider `Cc1nc(CNC(=O)C2CCN(C(=O)Nc3ccccc3Br)CC2)cs1`, for which the RP-LC retention time worked out at 655 s. In the case of `CCC(=O)Nc1ccc(N(C)CCc2c(C)nn(C)c2C)c(C(=O)O)c1` it was 572 s.
